Data on 27 compounds can be found in patent publication US20250092035A1, “ISOCITRATE DEHYDROGENASE 1 INHIBITORS AND METHODS OF USE THEREOF” (THE WISTAR INSTITUTE OF ANATOMY AND BIOLOGY, priority 2022, published 2025).

Molecules are shown by their SMILES. Read-outs that look alike come from different tables or passages of the source. Where only a bound is given, the exact number is not on record here.

Data set [1] concerns the target T1, IDH1 (Homo sapiens, UniProt O75874). Description: IC50 in two trials and mean (Example 1, assay not described). The format is biochemical.
Data set [2] addresses T1, IDH1. Briefly: IC50 dose-response curve fits (Example 1, assay not described). The format is biochemical. The note with it: for IC50: curve fit; for Bottom / Slope / Top: curve-fit parameter.
Data set [3] deals with T1, IDH1. Description: Two-step binding kinetics (Example 1, assay not described).
For data set [4] the following is noted: reported (ref. 52); cited from earlier work.
The nature of data set [5]: Mouse pharmacokinetics study. To be noted: CD-1, mouse, plasma, ip, 10 mg/kg.
Data set [6] is described as follows: Microsomal stability (mouse liver microsome assay). On the technique in general: Liver microsomes are a subcellular fraction often used to study metabolism.
For data set [7], the system named is MiaPaCa2 xenograft. On the procedure:
In vivo studies. […] Mice were maintained under pathogen-free conditions in the animal facility. No additional food or nutrient-contained bedding provided to the animals during these studies. […] Mice with subcutaneous PDX were purchased from The Jackson Laboratory (#TM01212). […] Mice were imaged weekly to monitor tumor progression and tumor volume was assessed for each mouse and plotted longitudinally. […] All experiments with KPC mice were performed under a UK Home Office license and approved by the University of Glasgow Animal Welfare and Ethical Review Board. […] Tamoxifen dissolved in corn oil at 20 mg/ml, and animals received tamoxifen (75 mg/kg, IP administration, once daily) for six consecutive days. For flank xenograft experiments, 1×10^6 cells were suspended in 200 μL of a PBS:matrigel solution (1:1) and injected subcutaneously into the right flank of mice. For orthotopic experiments, 4×10^4 Luciferase-expressing KPC K8484 cells were suspended in 50 μL of a PBS:matrigel solution (1:1) and injected into the pancreas of C57BL/6 mice at 12 weeks of age. Equal number of male and female mice were used. Mice were anesthetized using isoflurane gas. After ensuring appropriate depth of anesthesia, a 0.5 cm left subcostal incision was made to gain access into the peritoneal cavity. The tail of the pancreas was externalized and the mixture was carefully injected into the pancreas. […]

Setting [8] is: Trial 1, read-out: IC50, Trial 1.
The mark [9] stands for this setting: Trial 2, read-out: IC50, Trial 2.
[10] abbreviates: mean of the trials, read-out: Mean IC50.
[11] abbreviates: 1st step, read-out: KiAPP (affinity for 1st step).
Where [12] appears, read: 2nd step, read-out: KiAPP* (affinity for 2nd step).

T1 sequence (O75874 whole entry): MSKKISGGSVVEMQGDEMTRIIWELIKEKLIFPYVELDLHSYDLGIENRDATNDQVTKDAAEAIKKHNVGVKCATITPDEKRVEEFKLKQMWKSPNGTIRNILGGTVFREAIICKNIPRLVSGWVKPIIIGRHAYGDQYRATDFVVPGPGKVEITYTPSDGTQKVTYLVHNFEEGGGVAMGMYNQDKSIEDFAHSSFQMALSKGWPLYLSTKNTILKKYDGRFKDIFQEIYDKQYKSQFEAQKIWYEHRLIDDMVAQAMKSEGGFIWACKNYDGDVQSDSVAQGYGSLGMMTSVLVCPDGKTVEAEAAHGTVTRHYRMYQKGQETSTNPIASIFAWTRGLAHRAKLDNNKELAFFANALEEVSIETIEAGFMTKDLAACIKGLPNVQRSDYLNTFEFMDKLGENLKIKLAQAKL

As to `CC1(C)CN(C(=O)c2ccc[nH]2)Cc2c(C(=O)Nc3cccc(C(=O)O)c3)nn(Cc3ccc(F)cc3)c21` [FSM-2-97], the concentration for half-maximal inhibition (IC50) is over 10000 nM in data set [1] (setting [8]), 7830 nM in data set [1] (setting [9]) and 7830 nM in data set [1] (setting [10]).

With `CC1(C)CN(C(=O)c2ccc[nH]2)Cc2c(C(=O)Nc3cccc(C(N)=O)c3)nn(Cc3ccc(F)cc3)c21` [FSM-2-95], the IC50 is 309 nM in data set [1] (setting [8]), 294 nM in data set [1] (setting [9]) and 301 nM in data set [1] (setting [10]).

With `COc1ccc(NC(=O)c2nn(Cc3ccc(C(F)(F)F)cc3)c3c2CN(C(=O)c2cccs2)CC3(C)C)cc1` [FSM-2-276], in data set [2], the IC50 came out at 2.8 nM, the Bottom is given as 15.8, the Slope was determined as 1.4 and the Top is 98.9.

As for `CC1(C)CN(C(=O)c2cccs2)Cc2c(C(=O)Nc3cccc(C(=O)NC4CCCC4)c3)nn(Cc3ccc(F)cc3)c21` [IAP-1-35], the figures for the IC50 in data set [1] (setting [8]), in data set [1] (setting [9]) and in data set [1] (setting [10]) were 69 nM, 70 nM and 69 nM, respectively.

As to `C=CC(=O)Nc1cccc(NC(=O)c2nn(Cc3ccc(C(F)(F)F)cc3)c3c2CN(C(=O)c2cn[nH]c2)CC3(C)C)c1` [FSM-05-157], the “k5 (on rate for 2nd step, min−1)” value in data set [3] came out at 0.306 min⁻¹. Further, the “k6 (off rate for 2nd step)” value in data set [3] is 0.001 min⁻¹. In addition, the results for the Ki in data set [3] (setting [11]) and in data set [3] (setting [12]) were 23600 nM and 64.8 nM, respectively.

Regarding `CC1(C)CN(C(=O)c2ccc[nH]2)Cc2c(C(=O)Nc3cccc(C(=O)NC4CCCC4)c3)nn(Cc3ccc(F)cc3)c21` [IAP-1-34], the IC50 in data set [1] (setting [8]) came out at 88 nM; in data set [1] (setting [9]), 95 nM; in data set [1] (setting [10]) it was 91 nM.

Consider `CC1(C)CN(C(=O)c2cn[nH]c2)Cc2c(C(=O)Nc3cccc(NC(=O)CCCl)c3)nn(Cc3ccc(C(F)(F)F)cc3)c21` [FSM-05-141], for which the “k5 (on rate for 2nd step, min−1)” value in data set [3] was found to be 0.257 min⁻¹. In addition, in data set [3], the “k6 (off rate for 2nd step)” value stood at 0.002 min⁻¹. Further, the Ki in data set [3] (setting [11]) turned out to be 12500 nM; in data set [3] (setting [12]), 82.2 nM.

Take `CC1(C)CN(C(=O)c2cccs2)Cc2c(C(=O)Nc3cccc(C(=O)O)c3)nn(Cc3ccc(F)cc3)c21` [FSM-2-98]: the results for the IC50 in data set [1] (setting [8]), in data set [1] (setting [9]) and in data set [1] (setting [10]) were 6260 nM, 5070 nM and 5630 nM, respectively.

Take `CC1(C)CN(C(=O)c2ccc[nH]2)Cc2c(C(=O)Nc3cccc(C(=O)NC4CC4)c3)nn(Cc3ccc(F)cc3)c21` [IAP-1-23]: the concentration for half-maximal inhibition (IC50) in data set [1] (setting [8]) is 1030 nM; in data set [1] (setting [9]), 961 nM; in data set [1] (setting [10]), 996 nM.

In data set [2], `C[C@@H]1CN(C(=O)c2ccc[nH]2)Cc2c(C(=O)Nc3cccc([C@@H](C)O)c3)nn(Cc3ccc(F)cc3)c21` [FSM-206, reference compound] had a Bottom of −0.8, a Slope of 1.0 and a Top of 98.0. Besides, the bioavailability entry in data set [4] was “poor bioavailability”.

Take `Cn1cccc1C(=O)N1Cc2c(C(=O)Nc3ccccc3)nn(Cc3ccc(F)cc3)c2C(C)(C)C1` [VV-1-19]: the IC50 in data set [1] (setting [8]), in data set [1] (setting [9]) and in data set [1] (setting [10]) was 73 nM each time.

Regarding `CC1(C)CN(C(=O)c2cn[nH]c2)Cc2c(C(=O)Nc3ccc(F)cc3)nn(Cc3ccc(C(F)(F)F)cc3)c21` [FSM-3-002, N-(4-Fluorophenyl)-7,7-dimethyl-5-(1H-pyrazole-4-carbonyl)-1-(4-(trifluoromethyl)benzyl)-4,5,6,7-tetrahydro-1H-pyrazolo[4,3-c]pyridine-3-carboxamide], the Cmax in data set [5] was found to be 2320 ng/mL. Also, in data set [6] (liver microsomes), the half-life at 0.5 μM was 147 min. The xenograft growth result in data set [7] (75 mg/kg IP once daily) is listed as “marked reduction in MiaPaCa2 xenograft growth”. The tolerability result in data set [7] (mouse, in vivo, ip, 75 mg/kg) is “well-tolerated”.

For the compound `CC1(C)CN(C(=O)c2cccs2)Cc2c(C(=O)Nc3cccc(C(N)=O)c3)nn(Cc3ccc(F)cc3)c21` [FSM-2-96], the figures for the IC50 in data set [1] (setting [8]), in data set [1] (setting [9]) and in data set [1] (setting [10]) were 265 nM, 253 nM and 259 nM, respectively.

`CC(O)c1cccc(NC(=O)c2nn(Cc3ccc(F)cc3)c3c2CN(C(=O)c2cccn2C)CC3(C)C)c1` (stereo not shown) [IAP-1-39]: the 50% inhibitory concentration (IC50) is 45 nM in data set [1] (setting [8]), 47 nM in data set [1] (setting [9]) and 46 nM in data set [1] (setting [10]).

Consider `COc1ccc(NC(=O)c2nn(Cc3ccc(C(F)(F)F)cc3)c3c2CN(C(=O)c2ccc[nH]2)CC3(C)C)cc1` [FSM-2-275], for which, in data set [2], the half-maximal inhibitory concentration (IC50) came to 3.3 nM, the Bottom is recorded as 3.6, the Slope is 1.3 and the Top is 99.1.

On to `CC(O)c1cccc(NC(=O)c2nn(Cc3ccc(C(F)(F)F)cc3)c3c2CN(C(=O)c2cn[nH]c2)CC3(C)C)c1` (stereo not shown) [FSM-2-302], for which the half-life at 0.5 μM in data set [6] (liver microsomes) turned out to be 56.6 min. Further, in data set [2], the midpoint of inhibition, the IC50, lay at 36 nM; the Bottom is 4.0; the Slope was 1.0; the Top stood at 97.9.

In data set [2], `COc1cccc(NC(=O)c2nn(Cc3ccc(C(F)(F)F)cc3)c3c2CN(C(=O)c2cccs2)CC3(C)C)c1` [FSM-2-278] showed a half-inhibitory concentration (IC50) of 2.9 nM, a Bottom of 4.6, a Slope of 1.0 and a Top of 98.0.

As for `Cc1c[nH]c(C(=O)N2Cc3c(C(=O)Nc4cccc(C(C)O)c4)nn(Cc4ccc(F)cc4)c3C(C)(C)C2)c1` (stereo not shown) [IAP-1-40], the half-inhibitory concentration (IC50) amounted to 520 nM in data set [1] (setting [8]), 475 nM in data set [1] (setting [9]) and 497 nM in data set [1] (setting [10]).

On to `CC1(C)CN(C(=O)c2ccc[nH]2)Cc2c(C(=O)Nc3nccs3)nn(Cc3ccc(F)cc3)c21` [FSM-2-115], for which the IC50 in data set [1] (setting [8]), in data set [1] (setting [9]) and in data set [1] (setting [10]) was over 10000 nM throughout.

As for `CC1(C)CN(C(=O)c2cccs2)Cc2c(C(=O)Nc3nccs3)nn(Cc3ccc(F)cc3)c21` [FSM-2-116], the results for the IC50 in data set [1] (setting [8]), in data set [1] (setting [9]) and in data set [1] (setting [10]) were over 10000 nM, 8110 nM and 8110 nM, respectively.

In the case of `Cc1ncsc1-c1ccc(CNC(=O)[C@@H]2C[C@@H](O)CN2C(=O)C(NC(=O)CCCCCCOc2cccc(NC(=O)c3nn(Cc4ccc(F)cc4)c4c3CN(C(=O)c3ccc[nH]3)CC4(C)C)c2)C(C)(C)C)cc1` (stereo partly shown) [FSM-3-17], the half-life at 0.5 μM in data set [6] (liver microsomes) was determined as 19.5 min.

With `COc1cccc(NC(=O)c2nn(Cc3ccc(C(F)(F)F)cc3)c3c2CN(C(=O)c2ccc[nH]2)CC3(C)C)c1` [FSM-2-277], in data set [2], the IC50 is 2.9 nM, the Bottom worked out at 11.8, the Slope is 1.0 and the Top was found to be 99.3.

In data set [2], `CC1(C)CN(C(=O)c2cn[nH]c2)Cc2c(C(=O)Nc3cccc(F)c3)nn(Cc3ccc(C(F)(F)F)cc3)c21` [FSM-3-02] showed an IC50 of 113 nM, a Bottom of −0.9, a Slope of 1.0 and a Top of 95.0.

On to `CC1(C)CN(C(=O)c2cccs2)Cc2c(C(=O)Nc3cccc(C(=O)NC4CCCCC4)c3)nn(Cc3ccc(F)cc3)c21` [IAP-1-37], for which the IC50 in data set [1] (setting [8]) was found to be 19 nM; in data set [1] (setting [9]), 18 nM; in data set [1] (setting [10]), 19 nM.

Turning to `Cc1ncc2n1-c1ccc(Cl)cc1C(c1ccccc1F)=NC2` [Midazolam, reference compound], the half-life at 0.5 μM in data set [6] (microsomes) is 1.76 min.

Regarding `CC1(C)CN(C(=O)c2ccc[nH]2)Cc2c(C(=O)Nc3ncco3)nn(Cc3ccc(F)cc3)c21` [FSM-2-113], the values for the IC50 in data set [1] (setting [8]), in data set [1] (setting [9]) and in data set [1] (setting [10]) were 1270 nM, 1050 nM and 1160 nM, respectively.

For the compound `CC1(C)CN(C(=O)c2cccs2)Cc2c(C(=O)Nc3ncco3)nn(Cc3ccc(F)cc3)c21` [FSM-2-114], the figures for the IC50 in data set [1] (setting [8]), in data set [1] (setting [9]) and in data set [1] (setting [10]) were 1380 nM, 1230 nM and 1300 nM, respectively.

As a reminder, the IC50 is the concentration at which inhibition is half-maximal. What is called Cmax is the highest concentration seen after dosing. Broadly, the half-life is how long it takes for the measured level to halve. A low value points to fast loss.
